The record followed here is patent publication US7767665B2, “1,3-benzothiazinone derivatives and use thereof” (Takeda Pharmaceutical Company Limited, priority 2001, dated 2010).

SMILES strings stand for the structures.

`CCOc1ccc(-c2nc(=O)c3ccccc3s2)cn1` [Example 91, 2-(6-Ethoxy-3-pyridyl)-4H-1,3-benzothiazine-4-one] had a melting point of 152.3 to 156.2 °C.

For `O=c1nc(-c2ccccn2)sc2ccc(Br)cc12` [Example 11, 6-Bromo-2-(2-pyridyl)-4H-1,3-benzothiazine-4-one], the melting point lay in the range of 253 to 253.7 °C.

In the case of `CS(=O)(=O)c1cncc(-c2nc(=O)c3ccccc3s2)n1` [Example 289, 2-[6-(Methylsulfonyl)-2-pyrazinyl]-4H-1,3-benzothiazine-4-one], the melting point lay within 232 to 233 °C.

For the compound `CC(C)(C)OC(=O)CCc1cc(-c2nc(=O)c3ccccc3s2)nc(S(C)(=O)=O)c1` [Example 345, tert-Butyl 3-[2-(methylsulfonyl)-6-(4-oxo-4H-1,3-benzothiazin-2-yl)-4-pyridyl]propanoate], the melting point is 223 °C (dec.).

With `CCC(=O)NCc1cccc(-c2nc(=O)c3ccccc3s2)n1` [Example 205, N-[[6-(4-Oxo-4H-1,3-benzothiazin-2-yl)-2-pyridyl]methyl]propanamide], the melting point was 199 to 199.8 °C.

Compound `Cc1cc(CCC(=O)O)nc(-c2nc(=O)c3ccc(Cl)cc3s2)c1` [Example 192, 3-[6-(7-Chloro-4-oxo-4H-1,3-benzothiazin-2-yl)-4-methyl-2-pyridyl]propionic acid] had a melting point of 232.2 to 233.2 °C.

On to `O=c1nc(-c2cccc(CN3CCC(c4ccccc4)CC3)n2)sc2ccccc12` [Example 267, 2-{6-[(4-Phenyl-1-piperidyl)methyl]-2-pyridyl}-4H-1,3-benzo thiazine-4-one], for which the melting point was 207 to 208 °C.

Take `CC(C)C(=O)NCc1cccc(-c2nc(=O)c3ccccc3s2)n1` [Example 206, 2-Methyl-N-[[6-(4-oxo-4H-1,3-benzothiazin-2-yl)-2-pyridyl]methyl]propanamide]: the melting point was 188.6 to 189.2 °C.

As for `CS(=O)(=O)c1nccc(-c2nc(=O)c3ccccc3s2)n1` [Example 286, 2-[2-(Methylsulfonyl)-6-pyrimidinyl]-4H-1,3-benzothiazine-4-one], the melting point lay in the range of 269.5 to 270 °C.

Consider `O=C(NCc1cccc(-c2nc(=O)c3ccccc3s2)n1)c1ccccc1` [Example 207, N-[[6-(4-Oxo-4H-1,3-benzothiazin-2-yl)-2-pyridyl]methyl]benzamide], for which the melting point fell in the range of 213.9 to 214.7 °C.

In the case of `CCSCc1cccc(-c2nc(=O)c3ccccc3s2)n1` [Example 249, 2-[6-[(Ethylthio)methyl]-2-pyridyl]-4H-1,3-benzothiazine-4-one], the melting point fell in the range of 142 to 143.5 °C.

With `CN(Cc1ccccc1)c1cc(-c2nc(=O)c3ccccc3s2)ccn1` [Example 71, 2-[2-(N-Benzyl-N-methylamino)-4-pyridyl]-4H-1,3-benzothiazine-4-one], the melting point was 145.9 to 146.6 °C.

Compound `Cc1ccc2c(=O)nc(-c3cccc(CCC(=O)O)n3)sc2c1` [Example 176, 3-[6-(7-Methyl-4-oxo-4H-1,3-benzothiazin-2-yl)-2-pyridyl]propionic acid] displayed a melting point of 221.9 to 222.5 °C.

As for `CCOP(=O)(CCc1ccnc(-c2nc(=O)c3ccc(Cl)cc3s2)c1)OCC`, the melting point was in the range of 137.7 to 139.1 °C.

The compound `O=c1nc(-c2ccccn2)sc2ccc(Cl)cc12` [Example 9, 6-Chloro-2-(2-pyridyl)-4H-1,3-benzothiazine-4-one] returned a melting point of 269.4 to 270.1 °C.

For `Cc1cccc2c(=O)nc(-c3ccccn3)sc12` [Example 12, 8-Methyl-2-(2-pyridyl)-4H-1,3-benzothiazine-4-one], the melting point lay within 197.8 to 198.5 °C.

For the compound `O=c1nc(-c2cccc(Sc3ncccn3)n2)sc2ccccc12` [Example 270, 2-[6-(2-Pyrimidinylthio)-2-pyridyl]-4H-1,3-benzothiazine-4-one], the melting point was 245.2 to 245.8 °C.

Take `CC(C)(C)OC(=O)N1CCCC1c1ccnc(-c2nc(=O)c3ccccc3s2)c1` (stereo not drawn) [Example 352, tert-Butyl 2-[2-(4-oxo-4H-1,3-benzothiazin-2-yl)-4-pyridyl]-1-pyrrolidinecarboxylate]: the melting point is 194.8 to 195.8 °C.

The compound `O=c1nc(-c2ccc(Sc3ccc(Cl)cc3)nc2)sc2ccccc12` [Example 36, 2-{6-[(4-Chlorophenyl)thio]-3-pyridyl}-4H-1,3-benzothiazine-4-one] had a melting point of 221.5 to 222 °C.

`O=c1nc(-c2ccccn2)sc2ncccc12` [Example 22, 2-(2-Pyridyl)-4H-pyrido[3,2-e][1,3]thiazine-4-one] returned a melting point of 234.7 to 234.9 °C.

As for `Cc1nc(-c2nc(=O)c3ccccc3s2)cs1` [Example 347, 2-(2-Methyl-1,3-thiazol-4-yl)-4H-1,3-benzothiazin-4-one], the melting point was in the range of 219 to 220 °C.

Compound `CCCS(=O)(=O)Cc1cccc(-c2nc(=O)c3ccccc3s2)n1` [Example 254, 2-[6-[(n-Propylsulfonyl)methyl]-2-pyridyl]-4H-1,3-benzothiazine-4-one] registered a melting point of 177 to 179 °C.

In the case of `O=c1nc(-c2ccc(N3CCCC3)nc2)sc2ccccc12` [Example 33, 2-[6-(1-Pyrrolidinyl)-3-pyridyl]-4H-1,3-benzothiazine-4-one], the melting point was in the range of 221 to 223.1 °C.

Compound `CN(C)C(=O)NCCc1cccc(-c2nc(=O)c3ccccc3s2)n1` [Example 229, N,N-Dimethyl-N′-[2-[6-(4-oxo-4H-1,3-benzothiazin-2-yl)-2-pyridyl]ethyl]urea] displayed a melting point of 190.2 to 191 °C.

As to `O=c1nc(-c2cccc(N3CCCCC3)n2)sc2ccccc12` [Example 42, 2-[6-(1-Piperidyl)-2-pyridyl]-4H-1,3-benzothiazine-4-one], the melting point was 178.7 °C (dec.).

`O=C(NCc1cccc(-c2nc(=O)c3ccccc3s2)n1)c1cccs1` [Example 208, N-[[6-(4-Oxo-4H-1,3-benzothiazin-2-yl)-2-pyridyl]methyl]-2-thiophenecarboxamide] returned a melting point of 208.5 to 209 °C.

With `CCOC(=O)CSc1cccc(-c2nc(=O)c3ccccc3s2)n1` [Example 277, Ethyl {[6-(4-oxo-4H-1,3-benzothiazin-2-yl)-2-pyridyl]thio}acetate], the melting point was in the range of 124.5 to 125 °C.

`CC(C)(C)S(=O)(=O)c1cccc(-c2nc(=O)c3ccccc3s2)n1` [Example 154, 2-[6-(tert-Butylsulfonyl)-2-pyridyl]-4H-1,3-benzothiazine-4-one]: the melting point was 233.6 to 234.7 °C.

On to `COc1ccc(-c2cccc(-c3nc(=O)c4ccccc4s3)n2)cc1` [Example 198, 2-[6-(4-Methoxyphenyl)-2-pyridyl]-4H-1,3-benzothiazine-4-one], for which the melting point fell in the range of 200.1 to 201.1 °C.

The compound `Cc1cccc2c(=O)nc(-c3cccc(C(=O)NCCCCCCN)n3)sc12.Cl` came in with a melting point of 240 °C.

In turn, `CC(C)CCS(=O)(=O)c1cccc(-c2nc(=O)c3ccccc3s2)n1` [Example 158, 2-(6-Isoamylsulfonyl-2-pyridyl)-4H-1,3-benzothiazine-4-one] gave a melting point of 145.5 to 147 °C.

`CC(C)CCSc1cccc(-c2nc(=O)c3ccccc3s2)n1` [Example 130, 2-[6-(Isopentylthio)-2-pyridyl]-4H-1,3-benzothiazine-4-one] showed a melting point of 103.4 to 105.1 °C.

Consider `O=C(O)CN1CCN(c2ccnc(-c3nc(=O)c4ccccc4s3)c2)C1=O` [Example 324, [2-Oxo-3-[2-(4-oxo-4H-1,3-benzothiazin-2-yl)-4-pyridyl]-1-imidazolidinyl]acetic acid], for which the melting point was 271 to 273 °C.

Regarding `Nc1ccnc(-c2nc(=O)c3ccccc3s2)c1` [Example 142, 2-(4-Amino-2-pyridyl)-4H-1,3-benzothiazine-4-one], the melting point lay in the range of 207.6 to 207.9 °C.

Compound `O=c1nc(-c2ccccn2)sc2ccc(O)cc12` [Example 84, 6-Hydroxy-2-(2-pyridyl)-4H-1,3-benzothiazine-4-one] yielded a melting point of 313.3 to 315 °C.

On to `CC[S+]([O-])Cc1cccc(-c2nc(=O)c3ccccc3s2)n1` (stereo not drawn) [Example 250, 2-[6-[(Ethylsulfinyl)methyl]-2-pyridyl]-4H-1,3-benzothiazine-4-one], for which the melting point lay within 188.5 to 190 °C.

Turning to `CC(C)(C)OC(=O)CCc1ccnc(-c2nc(=O)c3ccc(Br)cc3s2)c1` [Example 187, tert-Butyl 3-[2-(7-bromo-4-oxo-4H-1,3-benzothiazin-2-yl)-4-pyridyl]propanoate], the melting point lay within 172.9 to 173.7 °C.

The compound `O=C(O)CSc1cccc(-c2nc(=O)c3ccccc3s2)n1` [Example 276, [6-(4-Oxo-4H-1,3-benzothiazin-2-yl)-2-pyridyl]thioacetic acid] had a melting point of 258 to 260 °C.

On to `Cc1cc(CCC(=O)O)nc(-c2nc(=O)c3ccccc3s2)c1` [Example 191, 3-[4-Methyl-6-(4-oxo-4H-1,3-benzothiazin-2-yl)-2-pyridyl]propionic acid], for which the melting point was in the range of 244.6 to 245.5 °C.

`O=c1nc(-c2ccccn2)sc2ccc(OCCCCCCO)cc12` [Example 119, 6-(6-Hydroxyhexyloxy)-2-(2-pyridyl)-4H-1,3-benzothiazine-4-one] yielded a melting point of 135.6 to 137 °C.

In turn, `CN(C)C(=O)Nc1cccc(-c2nc(=O)c3ccccc3s2)n1` [Example 231, N,N-Dimethyl-N′-[6-(4-oxo-4H-1,3-benzothiazin-2-yl)-2-pyridyl]urea] displayed a melting point of 230.1 to 230.3 °C.

The compound `CS(=O)(=O)c1cc(-c2nc(=O)c3ccccc3s2)ccn1` [Example 264, 2-[2-(Methylsulfonyl)-4-pyridyl]-4H-1,3-benzothiazine-4-one] had a melting point of 189.5 to 191.5 °C.

Take `O=c1nc(-c2cccc(-c3cnco3)n2)sc2ccccc12` [Example 195]: the melting point lay in the range of 271.3 to 272.7 °C.

In turn, `O=c1cccc(-c2nc(=O)c3ccccc3s2)[nH]1` [Example 326, 2-(6-Oxo-1,6-dihydro-2-pyridyl)-4H-1,3-benzothiazine-4-one] displayed a melting point of 214.2 to 215.3 °C.

The compound `O=C(O)CNc1nccc(-c2nc(=O)c3ccccc3s2)n1` [Example 296, {[6-(4-Oxo-4H-1,3-benzothiazin-2-yl)-2-pyrimidinyl]amino}acetic acid] registered a melting point of 283 to 284 °C.

Broadly, the melting point is the temperature of the solid-liquid transition.
